Experimental data as given in publication PMC10412636, “An analysis of interactions between three structurally diverse anthocyanidins, as well as their glucosides, and model biological membranes, albumin, and plasmid DNA” (Scientific Reports, 2023).

Tests used:
[1] = TMA-DPH probe fluorescence anisotropy in RBCM liposomes; set-up: species or system human; conditions: negative = increase in anisotropy
Excerpt: Two types of liposomes were used to study interactions with biological membranes: liposomes mimicking the composition of cancer cell membranes (mimic membrane liposome—MM) and liposomes formed from lipids extracted from human blood erythrocyte membranes (red blood cell membrane liposome—RBCM). […] The RBCM liposome was according to the methodology described previously[42] with minor modifications[43]. Both lipids, dissolved in chloroform (MM liposome) and n-decane (RBCM liposome), were evaporated under a nitrogen atmosphere, and then dried in a desiccator for 90 min under a vacuum. The obtained dry lipid film was hydrated in phosphate buffer, pH 7.4, obtaining a concentration of 0.1 mg/ml, and then vortexed for one minute until a homogeneous, milky suspension was observed. The mixture was sonicated (Sonic, Milano, Italia) for 15 min keeping the sample in a bath of ice water, thus providing a cooling temperature of 0 °C. The suspension was then processed (extrusion) through polycarbonate filters with pore diameters of 100 and 200 nm using a Lipex extruder (Evonik). Liposomes, which had been prepared according to this procedure, was used in fluorimetric studies.
To investigate these properties three fluorescent probes were used: MC540, TMA-DPH, and DPH. MC540 localizes to the outer, hydrophilic part of the membrane, within the region of the glycerol skeleton[44]. […] The TMA-DPH and DPH probes are supposed to locate nearer to the interface and in the hydrophobic region, respectively[45]. The measurement of changes in the anisotropy of the TMA-DPH and DPH probes allowed us to reflect the mobility of the fluorescent probes in the membrane, and therefore to determine the fluidity of the bilayer[46]. Fluorescence anisotropy was calculated using the formula[47]:1 A=I‖-GI⊥/I‖+2GI⊥ where I‖ and I⊥ are the intensity of fluorescence in parallel and perpendicular directions, to the plane of polarization of the excitation wave, respectively. G is an apparatus constant that depends on the emission wavelength.
(§1) Liposomes (the concentration of lipids in the sample was 0.1 mg/ml) were incubated for 30 min with the appropriate probe (dissolved in DMF, 1 µM concentration), and then the tested anthocyanins were added (final concentration of 1 to 30 µM). The control sample consisted of liposomes and a fluorescent probe. Fluorescence was measured on a fluorimeter (Cary Eclipse, Varian, San Diego, USA) at 37 °C. The excitation wavelengths λex and emission wavelengths λem respectively: MC540—λexc = 540 nm, λem = 590 nm; DPH—λexc = 360 nm, λem = 425 nm. nm; TMA-DPH—λexc = 340 nm, λem = 430 nm.

[2] = TMA-DPH probe fluorescence anisotropy in MM liposomes; conditions: negative = increase in anisotropy
Method: (§2) Two types of liposomes were used to study interactions with biological membranes: liposomes mimicking the composition of cancer cell membranes (mimic membrane liposome—MM) and liposomes formed from lipids extracted from human blood erythrocyte membranes (red blood cell membrane liposome—RBCM). […] Both lipids, dissolved in chloroform (MM liposome) and n-decane (RBCM liposome), were evaporated under a nitrogen atmosphere, and then dried in a desiccator for 90 min under a vacuum. The obtained dry lipid film was hydrated in phosphate buffer, pH 7.4, obtaining a concentration of 0.1 mg/ml, and then vortexed for one minute until a homogeneous, milky suspension was observed. The mixture was sonicated (Sonic, Milano, Italia) for 15 min keeping the sample in a bath of ice water, thus providing a cooling temperature of 0 °C. The suspension was then processed (extrusion) through polycarbonate filters with pore diameters of 100 and 200 nm using a Lipex extruder (Evonik). Liposomes, which had been prepared according to this procedure, was used in fluorimetric studies.
(§3) To investigate these properties three fluorescent probes were used: MC540, TMA-DPH, and DPH. MC540 localizes to the outer, hydrophilic part of the membrane, within the region of the glycerol skeleton[44]. Changes in the fluorescence intensity of this probe were formulated as the relative change in intensity to the control as a function of anthocyanins concentration. The TMA-DPH and DPH probes are supposed to locate nearer to the interface and in the hydrophobic region, respectively[45]. The measurement of changes in the anisotropy of the TMA-DPH and DPH probes allowed us to reflect the mobility of the fluorescent probes in the membrane, and therefore to determine the fluidity of the bilayer[46]. Fluorescence anisotropy was calculated using the formula[47]:1 A=I‖-GI⊥/I‖+2GI⊥ where I‖ and I⊥ are the intensity of fluorescence in parallel and perpendicular directions, to the plane of polarization of the excitation wave, respectively. G is an apparatus constant that depends on the emission wavelength.
as §1

[3] = MC540 probe fluorescence intensity in MM liposomes; conditions: 37 °C, positive = decrease
Method: as §2, §3, §1

pHbApr-1-Neo plasmid DNA = experiment: TCSPC-FCS of PicoGreen-labelled plasmid DNA with anthocyanins; type: binding
Method: To evaluate the biological interaction with DNA molecules the anthocyanins were initially dissolved in ETOH (1 mM). […] Mixing of such solutions with the aqueous DNA solutions used in the studies never exceeded 1% concentration ETOH (v/v) in the final solution. The DNA plasmid was labelled by PicoGreen (CPicoGreen/CDNAbp = 0.02)[52]. The pHbApr-1-Neo plasmid (10 kbp and contour length 3.4 µm) was a generous gift from the laboratory of Prof. Maciej Ugorski (Department of Biochemistry and Molecular Biology, Wrocław University of Environmental and Life Sciences Wroclaw, Poland). PicoGreen-labelled DNA samples mixed with the appropriate amount of anthocyanins were left overnight and then measured. The increasing concentration of anthocyanins in the tested samples was expressed as the ratio of the molar concentration of anthocyanins per molar concentration of DNA base pairs in a given sample (comp/bp). The 100 µl samples were measured in Ibidi 8-well chambers. Each point on the graph is a single sample (average of 10 measurements). All measurements were performed at room temperature (25 °C). Time-correlated single-photon counting fluorescence correlation spectroscopy (TCSPC-FCS) was used to study the interaction of plasmid DNA at the single molecule level with all tested anthocyanins. […] Low power of 1uW (at the back aperture of the objective) was chosen to minimize photobleaching and saturation. In the detection plane, a pinhole (50um in diameter) was used and the signal was collected by a single photon avalanche diode (SPAD, Microphoton Devices, Bolzano, Italy). Photon arrival times were stored using fast electronics (Picoharp 300, PicoQuant) in time-tagged time-resolved recording mode. Two independent times were assigned to each detected photon: (1) a time after the beginning of the measurement and (2) a time after the previous laser pulse. The FCS data analysis was done using home-built routines (DevC++, Bloodshed Software and OriginPro70, OriginLab Corporation). The TCSPC data analysis was performed using SymPhoTime software (PicoQuant). Further details of the data evaluation are given elsewhere.

[4] = MC540 probe fluorescence intensity in RBCM liposomes; set-up: species or system human; conditions: 37 °C, positive = decrease
Method: as §2, §3, §1

[5] = DPH fluorescence quenching, dissociation constant with MM liposome membrane; type: binding; conditions: 37 °C
Method: as §2
(§4) The phenomenon of quenching the fluorescence of the DPH probe by biologically active substances enabled us to evaluate the partition coefficient (Kd, dissociation constant) of anthocyanins with both MM and RBCM liposome membranes. For this purpose, changes in the fluorescence intensity of this probe were checked and the coefficient was calculated using the equation[48]:2 1/F0/F-1=Kd/[liposomes]×1/[anthocyanins]+1/liposomes where F0—fluorescence intensity in the absence of anthocyanins (control sample), F—fluorescence intensity in the presence of anthocyanins, [liposomes]—concentration of liposomes in mg/ml, [anthocyanins]—concentration of anthocyanins tested mg/ml.
as §1

[6] = DPH probe fluorescence anisotropy in RBCM liposomes; set-up: species or system human; conditions: for Changes in DPH anisotropy relative to the control: RBCM, negative = increase in anisotropy
Method: as §2, §3, §1

[7] = target: human serum albumin (HSA) (Homo sapiens, UniProt P02768); experiment: Quenching of natural fluorescence of human serum albumin; type: binding; conditions: HSA […] 10^–5 M, 37 °C
Method: The phenomenon of quenching the natural fluorescence of human serum albumin (HSA) was used to investigate the potential interaction of anthocyanins with this protein. […] Anthocyanins with concentrations ranging from 1 to 30 µM were added to HSA dissolved in phosphate buffer (1.5 × 10^–5 M) and then incubated at 37 °C for 20 min. Emission spectra were performed on a fluorimeter Cary Eclipse (Varian, San Diego, USA) at 37 °C. HSA fluorescence was excited with a wavelength of λ = 280 nm, the emission was measured in the range from 286 to 460 nm, and the fluorescence intensity was read at 345 nm where the emission maximum of HSA was located.
The Stern–Volmer equation was used to thoroughly describe the quenching mechanism of natural fluorescence and to determine the bindings parameters of HSA: anthocyanin complexes:4 F0/F=1+Kqτ0Q=1+KSV[Q] where F0—fluorescence intensity in the absence of anthocyanins (control sample), F—fluorescence intensity in the presence of anthocyanins, KSV—Stern–Volmer quenching constant (KSV = Kq·τ0), [Q]—concentration of quencher (tested compound), Kq—bimolecular quenching constant, τ0—a lifetime of the fluorophore in the absence of quencher the fluorescence lifetime of a biopolymer is calculated as 5 × 10^–9 s[51].
The apparent binding constants (Kb) and the number of binding sites (n) can be calculated using the following equation:5 log(F0-F/F]=logKb+nlog[Q]
F0 and F are the fluorescence intensities before and after the addition of the quencher. From the linear plot of log (F0 − F)/F versus log [Q], the value of Kb was obtained from the intercept.

[8] = DPH probe fluorescence anisotropy in MM liposomes; conditions: for Changes in DPH anisotropy relative to the control: MM, negative = increase in anisotropy
Method: as §2, §3, §1

[9] = DPH fluorescence quenching, dissociation constant with RBCM liposome membrane; type: binding, human; conditions: 37 °C
Method: as §2, §4, §1

human serum albumin (HSA), sequence (P02768 25-609): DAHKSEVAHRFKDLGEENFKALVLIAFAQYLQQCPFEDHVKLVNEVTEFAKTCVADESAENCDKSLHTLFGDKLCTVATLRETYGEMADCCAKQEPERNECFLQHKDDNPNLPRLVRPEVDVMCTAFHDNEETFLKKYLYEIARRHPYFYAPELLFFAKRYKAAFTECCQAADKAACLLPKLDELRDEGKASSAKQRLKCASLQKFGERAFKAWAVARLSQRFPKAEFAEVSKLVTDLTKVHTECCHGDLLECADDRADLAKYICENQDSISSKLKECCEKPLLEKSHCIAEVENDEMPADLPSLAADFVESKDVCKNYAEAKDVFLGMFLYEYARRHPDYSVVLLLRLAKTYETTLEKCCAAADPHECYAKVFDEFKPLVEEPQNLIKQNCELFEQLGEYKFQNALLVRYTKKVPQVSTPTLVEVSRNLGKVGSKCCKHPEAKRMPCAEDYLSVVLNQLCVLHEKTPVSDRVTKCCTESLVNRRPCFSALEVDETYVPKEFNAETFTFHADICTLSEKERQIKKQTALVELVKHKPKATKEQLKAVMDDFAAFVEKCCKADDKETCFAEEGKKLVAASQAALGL

## COc1cc(-c2[o+]c3cc(O)cc(O)c3cc2OC2OC(CO)C(O)C(O)C2O)ccc1O (stereo not shown) [Pn 3-glc, Peonidin 3-O-glucoside]
[1]; 1 µM
  Changes in TMA-DPH anisotropy relative to the control: -2.75±0.12%
[1]; 5 µM
  Changes in TMA-DPH anisotropy relative to the control: -0.59±0.03%
[1]; 10 µM
  Changes in TMA-DPH anisotropy relative to the control: -0.56±0.02%
[1]; 20 µM
  Changes in TMA-DPH anisotropy relative to the control: -0.61±0.03%
[1]; 30 µM
  Changes in TMA-DPH anisotropy relative to the control: 0.65±0.04%
[2]; 1 µM
  Changes in TMA-DPH anisotropy relative to the control: -3.26±0.11%
[2]; 5 µM
  Changes in TMA-DPH anisotropy relative to the control: -0.96±0.03%
[2]; 10 µM
  Changes in TMA-DPH anisotropy relative to the control: 0.69±0.02%
[2]; 20 µM
  Changes in TMA-DPH anisotropy relative to the control: 0.19±0.003%
[2]; 30 µM
  Changes in TMA-DPH anisotropy relative to the control: 1.63±0.05%
[3]; 1 µM
  Changes in MC540 fluorescence intensity relative to the control: 6.40±0.34%
[3]; 5 µM
  Changes in MC540 fluorescence intensity relative to the control: 10.52±0.67%
[3]; 10 µM
  Changes in MC540 fluorescence intensity relative to the control: 14.98±0.94%
[3]; 20 µM
  Changes in MC540 fluorescence intensity relative to the control: 24.13±1.45%
[3]; 30 µM
  Changes in MC540 fluorescence intensity relative to the control: 35.68±1.88%
pHbApr-1-Neo plasmid DNA; 0 < comp/bp < 1, decrease from 4.25 ns
  lifetime (LT): about 3.25 ns
pHbApr-1-Neo plasmid DNA; comp/bp from 1 to 10, minor further decrease
  lifetime (LT): about 2.75 ns
pHbApr-1-Neo plasmid DNA; tested range of comp/bp from 0 to 10
  decrease in the diffusion time (tD): 2.5 fold
[4]; 1 µM
  Changes in MC540 fluorescence intensity relative to the control: 16.40±0.66%
[4]; 5 µM
  Changes in MC540 fluorescence intensity relative to the control: 20.98±1.80%
[4]; 10 µM
  Changes in MC540 fluorescence intensity relative to the control: 29.53±2.47%
[4]; 20 µM
  Changes in MC540 fluorescence intensity relative to the control: 38.00±0.57%
[4]; 30 µM
  Changes in MC540 fluorescence intensity relative to the control: 50.34±2.93%
[5]
  Kd: 114 ± 17.2 µM
[6]; 1 µM
  Changes in DPH anisotropy relative to the control: -5.23±0.04%
[6]; 5 µM
  Changes in DPH anisotropy relative to the control: -2.72±0.08%
[6]; 10 µM
  Changes in DPH anisotropy relative to the control: -2.02±0.05%
[6]; 20 µM
  Changes in DPH anisotropy relative to the control: -0.79±0.03%
[6]; 30 µM
  Changes in DPH anisotropy relative to the control: -0.03±0.002%
[7]
  Stern Volmer constant KSV: 11.93 ± 1.61 × 10^3 M^−1
  number of binding sites n: 0.91 ± 0.09
[8]; 1 µM
  Changes in DPH anisotropy relative to the control: -7.68±0.11%
[8]; 5 µM
  Changes in DPH anisotropy relative to the control: -6.50±0.15%
[8]; 10 µM
  Changes in DPH anisotropy relative to the control: -6.27±0.08%
[8]; 20 µM
  Changes in DPH anisotropy relative to the control: -3.12±0.03%
[8]; 30 µM
  Changes in DPH anisotropy relative to the control: -0.39±0.01%
[9]
  Kd: 28.2 ± 5.11 µM

## COc1cc(-c2[o+]c3cc(O)cc(O)c3cc2O)cc(O)c1O [Pt, Petunidin]
[1]; 1 µM
  Changes in TMA-DPH anisotropy relative to the control: -4.68±0.23%
[1]; 5 µM
  Changes in TMA-DPH anisotropy relative to the control: -0.95±0.03%
[1]; 10 µM
  Changes in TMA-DPH anisotropy relative to the control: -1.05±0.03%
[1]; 20 µM
  Changes in TMA-DPH anisotropy relative to the control: 1.13±0.07%
[1]; 30 µM
  Changes in TMA-DPH anisotropy relative to the control: 0.70±0.02%
[2]; 1 µM
  Changes in TMA-DPH anisotropy relative to the control: -5.05±0.11%
[2]; 5 µM
  Changes in TMA-DPH anisotropy relative to the control: -4.34±0.09%
[2]; 10 µM
  Changes in TMA-DPH anisotropy relative to the control: -2.97±0.04%
[2]; 20 µM
  Changes in TMA-DPH anisotropy relative to the control: -5.53±0.11%
[2]; 30 µM
  Changes in TMA-DPH anisotropy relative to the control: -5.92±0.33%
[3]; 1 µM
  Changes in MC540 fluorescence intensity relative to the control: 17.63±1.11%
[3]; 5 µM
  Changes in MC540 fluorescence intensity relative to the control: 36.62±1.63%
[3]; 10 µM
  Changes in MC540 fluorescence intensity relative to the control: 50.22±5.62%
[3]; 20 µM
  Changes in MC540 fluorescence intensity relative to the control: 64.46±7.12%
[3]; 30 µM
  Changes in MC540 fluorescence intensity relative to the control: 72.51±3.32%
[3]; 30 µM, listed as petunidin
  Changes in MC540 fluorescence intensity relative to the control: 72.5 ± 3.3%
pHbApr-1-Neo plasmid DNA; comp/bp from 0 to 5, continuous decrease from 4.25 ns
  lifetime (LT): 2.3 ns
pHbApr-1-Neo plasmid DNA; comp/bp from 0 to 5, continuous decrease from 5.0
  Particle Number (PN): about 0
pHbApr-1-Neo plasmid DNA; comp/bp up to 0.8
  changes in plasmid tD, lower compared to those obtained for Pt 3-glc: ~3.5 fold
pHbApr-1-Neo plasmid DNA; tested range of comp/bp from 0 to 5
  decrease in the diffusion time (tD): 3.5 fold
[4]; 1 µM
  Changes in MC540 fluorescence intensity relative to the control: 16.68±0.58%
[4]; 5 µM
  Changes in MC540 fluorescence intensity relative to the control: 32.60±0.15%
[4]; 10 µM
  Changes in MC540 fluorescence intensity relative to the control: 43.35±1.60%
[4]; 20 µM
  Changes in MC540 fluorescence intensity relative to the control: 55.02±1.41%
[4]; 30 µM
  Changes in MC540 fluorescence intensity relative to the control: 61.93±1.58%
[4]; 30 µM, listed as petunidin
  Changes in MC540 fluorescence intensity relative to the control: 61.9 ± 1.6%
[5]
  Kd: 10.4 ± 2.45 µM
[6]; RBCM liposome, 20 µM
  highest percentage of an increase in DPH anisotropy relative to the control: 10.5 ± 0.7%
[6]; 1 µM
  Changes in DPH anisotropy relative to the control: -9.91±0.36%
[6]; 5 µM
  Changes in DPH anisotropy relative to the control: -8.46±0.42%
[6]; 10 µM
  Changes in DPH anisotropy relative to the control: -10.18±0.39%
[6]; 20 µM
  Changes in DPH anisotropy relative to the control: -10.51±0.67%
[6]; 30 µM
  Changes in DPH anisotropy relative to the control: -9.21±0.62%
[7]
  Stern Volmer constant KSV: 25.99 ± 1.77 × 10^3 M^−1
  number of binding sites n: 1.03 ± 0.03
[8]; MM liposome, 20 µM
  highest percentage of an increase in DPH anisotropy relative to the control: 17.6 ± 0.4%
[8]; 1 µM
  Changes in DPH anisotropy relative to the control: -13.00±0.31%
[8]; 5 µM
  Changes in DPH anisotropy relative to the control: -15.66±0.33%
[8]; 10 µM
  Changes in DPH anisotropy relative to the control: -17.48±0.09%
[8]; 20 µM
  Changes in DPH anisotropy relative to the control: -17.59±0.36%
[8]; 30 µM
  Changes in DPH anisotropy relative to the control: -14.74±0.10%
[9]
  Kd: 15.3 ± 4.01 µM
